Values after ≈ are worked out from the molar mass of the structure shown.
How the values were obtained:
Format in all cases: in vivo
direct-seeded rice = experiment: Field tests in direct-seeded rice; settings: less tolerant than transplant rice
From the text: The herbicides of this invention may be used singly, as mixtures with other herbicides and may be used in sequential use with other herbicides. For example, treatments of a transplant rice crop with the herbicides of this invention may be followed with treatments of other herbicides or mixtures such as S-4-chlorobenzyl diethylthiocarbamate (common name "benthiocarb") plus 2-chloro-4,6-di(ethylamino)-1,3,5-triazine (common name "simazine") or 3-isopropyl-(1H)-benzo-2,1,3-thiadiazine-4-one-2,2-dioxide (common name "bentazone") or 4-(4-chloro-2-methylphenoxy)butyric acid (common name "MCPB"). […] However, because of the high unit activity of compounds according to this invention against annual and perennial weeds associated with rice, it is within the purview of this invention to combine these herbicides with safeners or antidotes, to enhance the tolerance of both transplanted and direct-seeded rice thereto. Exemplary safeners contemplated as useful with the herbicides of this invention include the phenylglyoxylonitrile-2-oxime cyanomethyl ether described in U.S. Pat. No. 4,152,137, 2,4-disubstituted-5-thiazolecarboxylic acids and derivatives thereof as disclosed in the assignee's copending U.S. Ser. No. 906,183 and other known safeners for 2-haloacetanilides in rice.

Crabgrass = experiment: Pre-emergent herbicidal test, Crabgrass; settings: Table II; also: ranges in brackets are in %
From the text: (§1) A good grade of top soil is placed in aluminum pans and compacted to a depth of three-eights to one-half inch from the top of the pan. On the top of the soil is placed a number of seeds or vegetative propagules of various plant species. The soil required to level fill the pans after seeding or adding vegetative propagules is weighted into a pan. The soil and a known amount of the active ingredient applied in a solvent or as a wettable powder suspension are thoroughly mixed, and used to cover the prepared pans. After treatment, the pans are moved into a greenhouse bench where they are watered by subirrigation as needed to give adequate moisture for germination and growth.
(§2) Approximately 2 weeks after seeding and treating, the plants were observed and the results recorded. The herbicidal rating was obtained by means of a fixed scale based on the percent injury of each plant species. The ratings are defined as follows: […]
The compounds were further tested by utilizing the above procedure on the following plant species: […]

Carp = experiment: Fish toxicity (carp), Japanese protocol
Method: (§3) In view of the importance of fish toxicity considerations, tests were conducted with the compound of Example 1 on carp (7 cm) according to Japanese protocol; test data are shown in Table VII. Since U.S. Pat. No. 3,955,959 mentioned above discloses carp toxicity data for butachlor (Compound A) and terbuchlor (Compound C), also obtained according to Japanese protocol, the toxicity data in said U.S. Pat. No. 3,955,959 for these compounds is also presented in Table VII for comparative purposes.

[1] = Fish toxicity (carp), Japanese protocol; settings: in vivo, carp (7 cm), read-out: TLM, Median Tolerance Limit (LC50)
Method: as §3

Canada Thistle = experiment: Pre-emergent herbicidal test, Canada Thistle; settings: Table I; also: ranges in brackets are in %
From the text: as §1, §2

redroot pigweed = experiment: Sugarbeet greenhouse test, RRP; settings: in sugarbeets
From the text: (§4) In the discussion of data below, occasional reference is made to herbicide application rates symbolized as "GR15 " and "GR85 "; these rates are given in kilograms per hectare (kg/ha) which are convertible into pounds per acre (lbs/A) by dividing the kg/ha rate by 1.12.
(§5) A further guide to the effectiveness of a chemical as a selective herbicide is the "selectivity factor" ("SF") for a herbicide in given crops and weeds. The selectivity factor is a measure of the relative degree of crop safety and weed injury and is expressed in terms of the GR15 /GR85 ratio, i.e., the GR15 rate for the crop divided by the GR85 rate for the weed, both rates in kg/ha (lb/A.)
(§6) In further tests in the greenhouse, the compound of Example 2 was tested for its activity against annual weeds in sugarbeets at test rates within the range of 0.07 to 1.12 kg/ha (0.0625 to 1.0 lb/A). The GR15 and GR85 rates for sugarbeets and the various weeds are shown in Table VI; the selectivity factors for the herbicide against the weeds in sugarbeets are shown in parentheses below the weeds; "NS" means non-selective within the test limits. The following abbreviations are used in the table: barnyardgrass (BYG), wild oats (WO), downy brome (DB); redroot pigweed (RRP), blackgrass (BG), large crabgrass (LCG) and yellow foxtail (YFT).

wild oats = experiment: Sugarbeet greenhouse test, WO; settings: in sugarbeets
From the text: as §4, §5, §6

large crabgrass = experiment: Sugarbeet greenhouse test, LCG; settings: in sugarbeets
From the text: as §4, §5, §6

SMILES	efficacy in direct-seeded rice (direct-seeded rice)	Rating, Crabgrass (Crabgrass; 0.006 kg/h)	Rating, Crabgrass (Crabgrass; 0.01 kg/h)	Rating, Crabgrass (Crabgrass; 0.06 kg/h)	Rating, Crabgrass (Crabgrass; 0.28 kg/h)	Rating, Crabgrass (Crabgrass; 1.12 kg/h)	Rating, Crabgrass (Crabgrass; 5.6 kg/h)	expected fish kill relative to Compound A (Carp; at expected use rates, vs Compound A)	toxicity to carp relative to Compound A (Carp; vs Compound A)	toxicity to carp relative to Compound C (Carp; vs Compound C)	LC50 at 96 h ([1]; 96 Hours) [µg/mL]	LC50 at 48 h ([1]; 48 hours) [µg/mL]	Rating, Canada Thistle (Canada Thistle; 5.6 kg/h)	Rating, Canada Thistle (Canada Thistle; 11.2 kg/h)	GR85 Rate, RRP (redroot pigweed) [Kg/Ha]	selectivity factor, RRP (redroot pigweed)	GR85 Rate, WO (wild oats) [Kg/Ha]	selectivity factor, WO (wild oats)	GR85 Rate, LCG (large crabgrass) [Kg/Ha]	selectivity factor, LCG (large crabgrass)
CCCCOc1cccc(CC)c1N(C)C(=O)CCl [Example 1, N-methyl-2'-n-butoxy-6'-ethyl-2-chloroacetanilide]	less-efficacious	1 (25-49)	3 (75-100)	3 (75-100)	3 (75-100)	3 (75-100)	3 (75-100)	only one-sixth	less than one-third as toxic	almost one-half as toxic	2.4 (≈ 8.46 µM)	3.2 (≈ 11.3 µM)	3 (75-100)	3 (75-100)	–	–	–	–	–	–
CCCCOc1cccc(CC)c1N(CC)C(=O)CCl [Example 2, N-ethyl-2'-n-butoxy-6'-ethyl-2-chloroacetanilide]	–	–	–	–	–	–	–	–	–	–	–	–	–	–	> 1.12	NS (non-selective within the test limits)	0.28	2.0	0.07	8.0
